Reference: US11932624B2, “MDM2 degraders and uses thereof” (Kymera Therapeutics, Inc., priority 2020, dated 2024)

System: RS411 cells
Test: Cell Viability CTG Assay (CellTiter Glo) in RS411 cells
Type: cell-based
Settings: Homo sapiens, RS4-11, 24 h, duration 1 day
Summary of the method: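 Read-out was CellTiter Glo luminescence, taken after 10 min at RT, following 1-4 days of incubation at 37 °C, 5% CO2. Cells were plated at 1000 per well with an 11-point, 3-fold series starting at 10 μM final in 0.2% DMSO. IC50 values are given as letter-code ranges.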

Row | Structure (SMILES) | IC50 [nM]
1 | Cn1c(=O)n(C2CCC(=O)NC2=O)c2ccc(N3CCN(C[C@H]4CC[C@H](NC(=O)[C@@H]5NC6(CCC(C)(C)CC6)[C@@]6(C(=O)Nc7cc(Cl)ccc76)[C@H]5c5ccnc(Cl)c5F)CC4)CC3)cc21 (stereo partly drawn) [I-204] | < 50
2 | Cn1c(=O)n(C2CCC(=O)NC2=O)c2ccc(CN3CCN(C[C@H]4CC[C@H](NC(=O)[C@@H]5NC6(CCC(C)(C)CC6)[C@@]6(C(=O)Nc7cc(Cl)ccc76)[C@H]5c5ccnc(Cl)c5F)CC4)CC3)cc21 (stereo partly drawn) [I-205] | < 50
3 | COc1cc2c(cc1OC(C)C)C(c1ccc(Cl)cc1)N(c1ccc(N(C)C[C@H]3CC[C@H](N(C)CCCC#Cc4c(OC)ccc5c4n(C)c(=O)n5C4CCC(=O)NC4=O)CC3)cc1)C(=O)C2 (stereo partly drawn) [I-206] | < 50
4 | Cn1c(=O)n(C2CCC(=O)NC2=O)c2ccc(N3CCN(C[C@H]4CC[C@H](NC(=O)[C@@H]5NC6(CCCCC6)[C@@]6(C(=O)Nc7cc(Cl)ccc76)[C@H]5c5cccc(Cl)c5F)CC4)CC3)cc21 (stereo partly drawn) [I-207] | < 50
5 | COc1cc2c(cc1OC(C)C)C(c1ccc(Cl)cc1)N(c1ccc(N(C)CCCCCCCc3ccc4c(c3)n(C)c(=O)n4C3CCC(=O)NC3=O)cc1)C(=O)C2 (stereo not drawn) [I-208] | > 1000

Continued, values first:

Row | IC50 [nM] | Structure (SMILES)
6 | > 1000 | COc1cc2c(cc1OC(C)C)C(c1ccc(Cl)cc1)N(c1ccc(N(C)C(=O)C3CCN(CCCCCCc4ccc5c(c4)n(C)c(=O)n5C4CCC(=O)NC4=O)CC3)cc1)C(=O)C2 (stereo not drawn) [I-209]
7 | < 50 | CN(CCCCCc1ccc2c(c1)n(C)c(=O)n2C1CCC(=O)NC1=O)Cc1ccc(NC(=O)[C@@H]2NC3(CCCCC3)[C@@]3(C(=O)Nc4cc(Cl)ccc43)[C@H]2c2cccc(Cl)c2F)c2c1OCCO2 (stereo partly drawn) [I-210]
8 | < 50 | COc1cc2c(cc1OC(C)C)[C@H](c1ccc(Cl)cc1)N(c1ccc(N(C)C[C@H]3CC[C@H](N4CCN(CCc5ccc6c(c5)n(C)c(=O)n6C5CCC(=O)NC5=O)CC4)CC3)cc1)C(=O)C2 (stereo partly drawn) [I-211]
9 | > 1000 | COc1cc2c(cc1OC(C)C)C(c1ccc(Cl)cc1)N(c1ccc(N(C)C[C@H]3CC[C@H](N(C)CCCCc4ccn5c(N6CCC(=O)NC6=O)cnc5c4)CC3)cc1)C(=O)C2 (stereo partly drawn) [I-212]
10 | > 1000 | CNC(=O)c1ccc(N2C(=O)[C@H]3[C@H](c4cccc(Cl)c4F)[C@@](C#N)(c4ccc(Cl)cc4F)[C@H](CC(C)(C)C)N3C2CCCCCCCC#Cc2ccc3c(c2)n(C)c(=O)n3C2CCC(=O)NC2=O)c(OC)c1 (stereo partly drawn) [I-213, 4-[(5S,6R,7S,7aR)-7-(3-chloro-2-fluoro-phenyl)-6-(4-chloro-2-fluoro-phenyl)-6-cyano-5-(2,2-dimethylpropyl)-3-[9-[1-(2,6-dioxo-3-piperidyl)-3-methyl-2-oxo-benzimidazol-5-yl]non-8-ynyl]-1-oxo-3,5,7,7a-tetrahydropyrrolo[1,2-c]imidazol-2-yl]-3-methoxy-N-methyl-benzamide]
11 | 50 to 100 | Cn1c(=O)n(C2CCC(=O)NC2=O)c2ccc(C#CCCCCCCCCN3[C@@H](C(=O)Nc4ccc(C(=O)O)cc4)[C@H](c4cccc(Cl)c4F)[C@]4(C(=O)Nc5cc(Cl)ccc54)C34CCCCC4)cc21 (stereo partly drawn) [I-214, 4-((3′R,4'S,5′R)-6″-chloro-4′-(3-chloro-2-fluorophenyl)-1′-(10-(1-(2,6-dioxopiperidin-3-yl)-3-methyl-2-oxo-2,3-dihydro-1H-benzo[d]imidazol-5-yl)dec-9-yn-1-yl)-2″-oxodispiro[cyclohexane-1,2′-pyrrolidine-3′,3″-indoline]-5′-carboxamido)benzoic acid]
12 | < 50 | Cn1c(=O)n(C2CCC(=O)NC2=O)c2ccc(C#CCCCCCN3CCC(NC(=O)[C@@H]4NC5(CCCCC5)[C@@]5(C(=O)Nc6cc(Cl)ccc65)[C@H]4c4cccc(Cl)c4F)CC3)cc21 (stereo partly drawn) [I-224]
